Laboratory results reported in US20230026696A1, “TRPV4 RECEPTOR LIGANDS” (UNIVERSITY OF UTAH RESEARCH FOUNDATION, priority 2019, published 2023).

Columns and labels:
[1] = molecular target: T1, TRPV1 (Homo sapiens, UniProt Q8NER1); experiment: Selectivity Ca2+ flux assay, TRPV1 stably overexpressed in human lung epithelial (BEAS-2B) cells; assay type: cell-based; settings: agonist nonivamide (5 μM)
T1 construct: expressed in transfected cells
Method: (§1) To determine selectivity of the various test compounds for TRPV4, select compounds with activity in the TRPV4 fluorometric cell-based Ca^2+ flux assays were also tested for inhibition of human TRPA1 stably over-expressed in HEK-293 cells, TRPM8 stably over-expressed in HEK-293 cells, TRPV3 stably over-expressed in HEK-293 cells, and TRPV1 stably overexpressed in human lung epithelial (BEAS-2B) cells. The assays were conducted substantially as described above for HEK-293 cells that stably overexpress TRPV4, although for TRPV1, the BEAS-2B cells were maintained in LHC-9 media containing Geneticin (300 μg/mL) and were loaded with Fluo-4AM at room temperature. The agonist for TRPA1 was 2,4-ditert butylphenol (50 μM), for TRPM8 was icilin (50 μM), for TRPV3 was carvacrol (300 μM), and for TRPV1 was nonivamide (5 μM). All other aspects of the assay described above were the same.

[2] = molecular target: T2, TRPV3 (Homo sapiens, UniProt Q8NET8); experiment: Selectivity Ca2+ flux assay, TRPV3 stably over-expressed in HEK-293 cells; assay type: cell-based; settings: agonist carvacrol (300 μM)
T2 construct: expressed in transfected cells
T2 sequence (Q8NET8 1-790): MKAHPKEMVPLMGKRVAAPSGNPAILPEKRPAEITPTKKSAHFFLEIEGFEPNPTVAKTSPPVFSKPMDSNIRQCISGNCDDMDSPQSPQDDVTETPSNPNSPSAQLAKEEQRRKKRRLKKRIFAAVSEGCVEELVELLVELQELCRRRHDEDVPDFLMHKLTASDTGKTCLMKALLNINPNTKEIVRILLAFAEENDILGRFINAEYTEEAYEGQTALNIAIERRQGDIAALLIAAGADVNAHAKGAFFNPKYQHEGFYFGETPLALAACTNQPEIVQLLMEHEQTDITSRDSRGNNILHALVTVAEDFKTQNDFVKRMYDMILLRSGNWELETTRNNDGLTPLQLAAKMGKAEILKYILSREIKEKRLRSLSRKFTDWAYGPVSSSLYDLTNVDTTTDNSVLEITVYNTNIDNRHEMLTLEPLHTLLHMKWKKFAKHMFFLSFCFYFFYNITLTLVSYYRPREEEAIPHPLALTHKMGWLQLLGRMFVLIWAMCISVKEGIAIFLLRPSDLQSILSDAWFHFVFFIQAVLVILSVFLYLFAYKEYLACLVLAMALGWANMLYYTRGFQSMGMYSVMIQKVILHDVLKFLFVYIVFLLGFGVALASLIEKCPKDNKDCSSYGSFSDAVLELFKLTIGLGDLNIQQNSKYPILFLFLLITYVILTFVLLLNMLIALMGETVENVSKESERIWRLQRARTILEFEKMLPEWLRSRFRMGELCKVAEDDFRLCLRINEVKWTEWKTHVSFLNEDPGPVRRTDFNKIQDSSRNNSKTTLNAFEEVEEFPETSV
Method: as §1

[3] = tested on: intraocular pressure (IOP); experiment: In vivo tonometric IOP assay in microbead mouse model of ocular hypertension; settings: for IOP after single topical application: 1 μM and 10 μM, comparable to 0.5% timolol; for IOP after topical administration / protection of RGCs: mouse model of ocular hypertension, compounds 1 μM and 10 μM, timolol 0.5%; for IOP after topical administration: FIG. 1; for protection of RGCs: topical
[4] = tested on: intraocular pressure (IOP); experiment: as above; settings: FIG. 2 right panel; P<0.01 / P<0.001, two-way ANOVA
Method: FIG. 1 is a graph showing the effect that two concentrations of topical compound 11 (0.01% and 0.1%), 0.5% timolol, and control PBS had on IOP in the microbead (MB) mouse model of ocular hypertension (N=3 separate experiments, with 7-10 mice per experimental cohort). Error bars=±S.E.M. Ocular hypertension in the mouse model of primary open angle glaucoma (POAG) was induced with intracameral injection of polystyrene microbeads. Antagonist stock solutions (10 mM) were prepared in DMSO, the final concentrations were made in PBS diluted to <0.0001% DMSO.
FIG. 2 is a bar chart showing the cumulative data for pre-IOP elevation cohorts of mouse eyes (N≥3 separate experiments, with 7-10 mice per experimental cohort). Left panel: the IOP data are plotted as % of the control value of the timolol-treated eye cohort. Middle panel: MB injection elevated IOP in all experimental cohorts.
A tonometric assay was used to measured IOP changes in mice models of ocular hypertension over a period of weeks following topical application of the compounds.
To prepare the mice models of ocular hypertension, mice were anesthetized with an intraperitoneal (IP) injection of ketamine/xylazine (90 mg/10 mg/kg of body weight). Eye drops of 0.5% proparacaine hydrochloride with 1% tropicamide ophthalmic solution (Bausch & Lomb) were applied to numb and dilate the eyes of the mice. IOP was elevated in the ipsilateral eye by injecting 2 μl of polystyrene microbeads (7.8 μm FluoSpheres; Bangs Laboratories) with a Hamilton syringe into the anterior chamber over 60 seconds. The contralateral eye was injected with phosphate buffered saline (PBS).
A rebound tonometer was used to measure IOP at 1, 2, 6 and 10 hours post-injection after topical administration of Compounds 11 and 52 and timolol, a known medication for treatment of IOP associated with ocular hypertension and glaucoma. The IOP was determined from the means of 10 to 20 readings, following the protocol described in Ryskamp et al., Sci Rep 6:30583, 2016. […]

[5] = molecular target: T3, human TRPA1 (Homo sapiens, UniProt O75762); experiment: Selectivity Ca2+ flux assay, TRPA1 stably over-expressed in HEK-293 cells; assay type: cell-based; settings: agonist 2,4-ditert butylphenol (50 μM)
T3 construct: expressed in transfected cells
Method: as §1

[6] = molecular target: T4, TRPM8 (Homo sapiens, UniProt Q7Z2W7); experiment: Selectivity Ca2+ flux assay, TRPM8 stably over-expressed in HEK-293 cells; assay type: cell-based; settings: agonist icilin (50 μM)
T4 construct: expressed in transfected cells
Method: as §1

T3 sequence (O75762 whole entry): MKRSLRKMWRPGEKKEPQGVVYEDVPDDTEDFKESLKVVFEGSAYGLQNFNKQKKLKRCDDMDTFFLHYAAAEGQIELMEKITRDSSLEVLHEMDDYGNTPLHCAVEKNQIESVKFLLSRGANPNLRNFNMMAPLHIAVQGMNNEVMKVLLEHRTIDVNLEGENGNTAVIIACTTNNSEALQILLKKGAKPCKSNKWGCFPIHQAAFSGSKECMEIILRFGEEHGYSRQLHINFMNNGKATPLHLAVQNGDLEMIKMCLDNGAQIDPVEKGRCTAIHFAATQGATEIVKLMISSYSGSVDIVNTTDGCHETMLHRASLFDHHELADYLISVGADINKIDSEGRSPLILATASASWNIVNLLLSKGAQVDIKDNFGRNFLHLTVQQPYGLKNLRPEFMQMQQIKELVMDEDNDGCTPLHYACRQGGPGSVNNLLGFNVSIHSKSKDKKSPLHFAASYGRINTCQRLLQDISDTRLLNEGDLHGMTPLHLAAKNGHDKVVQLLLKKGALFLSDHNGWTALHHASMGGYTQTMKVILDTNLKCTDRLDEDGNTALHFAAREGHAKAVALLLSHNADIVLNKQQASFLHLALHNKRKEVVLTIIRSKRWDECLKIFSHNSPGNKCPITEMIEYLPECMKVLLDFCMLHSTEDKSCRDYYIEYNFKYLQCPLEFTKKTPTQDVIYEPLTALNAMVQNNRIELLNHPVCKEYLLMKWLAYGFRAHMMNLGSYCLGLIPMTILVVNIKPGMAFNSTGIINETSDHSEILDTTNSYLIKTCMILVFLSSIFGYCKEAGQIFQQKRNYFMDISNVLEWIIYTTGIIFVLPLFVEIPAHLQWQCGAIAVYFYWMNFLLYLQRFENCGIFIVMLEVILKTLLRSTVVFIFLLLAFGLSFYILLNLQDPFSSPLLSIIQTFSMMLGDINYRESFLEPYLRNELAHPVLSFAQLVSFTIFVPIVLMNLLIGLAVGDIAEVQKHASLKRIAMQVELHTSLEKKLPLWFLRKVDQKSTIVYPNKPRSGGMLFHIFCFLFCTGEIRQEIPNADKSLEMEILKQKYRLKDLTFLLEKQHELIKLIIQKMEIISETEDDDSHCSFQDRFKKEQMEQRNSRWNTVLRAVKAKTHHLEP
T4 sequence (Q7Z2W7 whole entry): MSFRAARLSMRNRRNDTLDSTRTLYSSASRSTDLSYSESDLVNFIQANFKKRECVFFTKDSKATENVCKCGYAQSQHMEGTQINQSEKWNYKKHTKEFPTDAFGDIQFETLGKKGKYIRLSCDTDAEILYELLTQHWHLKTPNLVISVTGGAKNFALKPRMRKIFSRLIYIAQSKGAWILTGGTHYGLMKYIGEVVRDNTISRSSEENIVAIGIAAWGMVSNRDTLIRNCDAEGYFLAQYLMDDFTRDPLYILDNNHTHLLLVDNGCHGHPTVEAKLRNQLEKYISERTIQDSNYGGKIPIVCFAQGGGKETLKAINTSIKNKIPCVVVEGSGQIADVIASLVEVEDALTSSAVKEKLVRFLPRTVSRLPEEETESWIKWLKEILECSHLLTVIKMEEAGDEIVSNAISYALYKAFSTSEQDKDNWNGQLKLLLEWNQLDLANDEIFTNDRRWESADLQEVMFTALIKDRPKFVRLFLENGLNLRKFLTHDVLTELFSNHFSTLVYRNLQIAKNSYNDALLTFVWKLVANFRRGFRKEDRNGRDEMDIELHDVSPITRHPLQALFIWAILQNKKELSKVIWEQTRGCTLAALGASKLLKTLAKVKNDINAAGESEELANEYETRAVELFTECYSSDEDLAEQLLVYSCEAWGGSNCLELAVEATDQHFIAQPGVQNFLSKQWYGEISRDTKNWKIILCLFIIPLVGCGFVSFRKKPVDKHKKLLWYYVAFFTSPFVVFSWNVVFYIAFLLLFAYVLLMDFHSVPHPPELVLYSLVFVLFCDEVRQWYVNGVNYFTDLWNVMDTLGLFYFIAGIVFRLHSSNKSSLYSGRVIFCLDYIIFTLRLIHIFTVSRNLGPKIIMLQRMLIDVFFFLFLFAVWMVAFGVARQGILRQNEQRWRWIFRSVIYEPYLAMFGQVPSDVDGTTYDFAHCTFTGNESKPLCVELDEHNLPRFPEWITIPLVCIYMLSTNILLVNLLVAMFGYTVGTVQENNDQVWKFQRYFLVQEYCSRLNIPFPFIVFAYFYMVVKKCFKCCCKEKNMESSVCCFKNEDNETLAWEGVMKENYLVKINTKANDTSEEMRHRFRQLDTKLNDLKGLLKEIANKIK
T1 sequence (Q8NER1 whole entry): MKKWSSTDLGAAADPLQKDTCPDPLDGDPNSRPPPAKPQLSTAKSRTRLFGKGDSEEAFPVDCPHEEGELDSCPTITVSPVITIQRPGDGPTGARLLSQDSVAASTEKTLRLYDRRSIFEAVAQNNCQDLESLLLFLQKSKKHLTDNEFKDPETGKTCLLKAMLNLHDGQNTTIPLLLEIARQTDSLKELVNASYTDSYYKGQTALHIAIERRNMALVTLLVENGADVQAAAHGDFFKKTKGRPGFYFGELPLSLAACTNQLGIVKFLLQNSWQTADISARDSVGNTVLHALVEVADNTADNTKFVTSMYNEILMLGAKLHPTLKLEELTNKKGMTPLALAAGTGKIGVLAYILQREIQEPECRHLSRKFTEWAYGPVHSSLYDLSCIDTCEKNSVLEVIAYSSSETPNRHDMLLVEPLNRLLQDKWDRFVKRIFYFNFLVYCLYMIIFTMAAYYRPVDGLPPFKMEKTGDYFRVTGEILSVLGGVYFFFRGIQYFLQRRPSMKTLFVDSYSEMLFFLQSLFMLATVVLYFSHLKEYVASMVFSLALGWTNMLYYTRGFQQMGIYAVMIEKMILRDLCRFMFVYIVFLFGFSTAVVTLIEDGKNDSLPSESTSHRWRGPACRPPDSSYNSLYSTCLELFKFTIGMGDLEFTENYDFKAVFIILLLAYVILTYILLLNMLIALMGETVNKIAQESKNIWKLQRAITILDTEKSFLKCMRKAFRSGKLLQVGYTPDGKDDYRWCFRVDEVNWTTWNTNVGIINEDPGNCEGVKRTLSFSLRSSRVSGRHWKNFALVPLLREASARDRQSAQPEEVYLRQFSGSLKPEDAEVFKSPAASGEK

| Compound | IC50 [1] | IC50 [2] | IOP after single topical application [3] | IOP after topical administration [3] | protection of RGCs [3] | IOP levels in MB-treated eyes, topical application [4] | IC50 [5] | IC50 [6] |
| --- | --- | --- | --- | --- | --- | --- | --- | --- |
| Cl.N#Cc1ccc(OCC2(N)CN(S(=O)(=O)c3ccc(Cl)cc3Cl)C2)cc1F [Compound 52, 4-((3-Amino-1-((2,4-dichlorophenyl)sulfonyl)azetidin-3-yl)methoxy)-2-fluorobenzonitrile hydrochloride salt] | 60 µM | > 100 µM | effectively lower IOP | lowered the IOP | protected RGCs | significantly lowered IOP levels | 89.6 µM | 35.9 µM |
| N#Cc1ccc(OCC2(CO)CN(S(=O)(=O)c3ccc(Cl)cc3Cl)C2)cc1F [Compound 11, 4-((1-((2,4-Dichlorophenyl)sulfonyl)-3-(hydroxymethyl)azetidin-3-yl)methoxy)-2-fluorobenzonitrile] | 24.3 µM | > 100 µM | effectively lower IOP | lowered the IOP | protected RGCs | significantly lowered IOP levels | 52 µM | 14.4 µM |
